Measurements from ChEMBL document CHEMBL1201862, “PubChem BioAssay data set” (2004).
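Grown in 96-well plates, cells were treated for 48 hours with each compound at five concentrations. Insufficient inhibition: endpoint recorded as highest concentration tested. GI50 marks 50% less growth.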 Active and inactive are the calls of the source. Cut-off read from the data, not from the text of the source: active = GI50 up to about 1.1 µM and inactive = higher.

Assays:
Test in all cases: NCI tumour cell line growth inhibition, 48 h
[1] = tested on: A498
[2] = tested on: ACHN
[3] = tested on: CAKI-1
[4] = tested on: COLO 205
[5] = tested on: HL-60
[6] = tested on: HOP-62
[7] = tested on: HOP-92
[8] = tested on: IGROV-1
[9] = tested on: M14
[10] = tested on: MOLT-4
[11] = tested on: NCI-H23
[12] = tested on: OVCAR-4
[13] = tested on: SK-MEL-28
[14] = tested on: SK-MEL-2
[15] = tested on: SK-MEL-5
[16] = tested on: U-251
[17] = tested on: UACC-257
[18] = tested on: EKVX
[19] = tested on: OVCAR-8
[20] = tested on: SR

Compound	GI50 [1]	GI50 [2]	GI50 [3]	GI50 [4]	GI50 [5]	GI50 [6]	GI50 [7]	GI50 [8]	GI50 [9]	GI50 [10]	GI50 [11]	GI50 [12]	GI50 [13]	GI50 [14]	GI50 [15]	GI50 [16]	GI50 [17]	GI50 [18]	GI50 [19]	GI50 [20]
c1ccc(COC2(OCc3ccccc3)CC3OC2C2NN=NC32)cc1 (stereo unspecified)	> 100 µM (inactive)	> 100 µM (inactive)	44 µM (inactive)	37.7 µM (inactive)	11.1 µM (inactive)	41.9 µM (inactive)	19.6 µM (inactive)	28.6 µM (inactive)	18.5 µM (inactive)	12.5 µM (inactive)	17.5 µM (inactive)	17.9 µM (inactive)	18.8 µM (inactive)	> 10 µM (inactive)	17.1 µM (inactive)	18.1 µM (inactive)	18.5 µM (inactive)	–	–	–
Cn1ccnc1C(O)(c1nccn1C)c1nccn1C	–	> 100 µM (inactive)	> 100 µM (inactive)	> 100 µM (inactive)	> 100 µM (inactive)	> 100 µM (inactive)	> 100 µM (inactive)	–	> 100 µM (inactive)	–	> 100 µM (inactive)	> 100 µM (inactive)	> 100 µM (inactive)	> 100 µM (inactive)	> 100 µM (inactive)	> 100 µM (inactive)	> 100 µM (inactive)	> 100 µM (inactive)	> 100 µM (inactive)	> 100 µM (inactive)
CC(NCCS(=O)(=O)O)C(=O)O (stereo unspecified)	> 77.3 µM (inactive)	–	> 100 µM (inactive)	> 100 µM (inactive)	> 100 µM (inactive)	> 100 µM (inactive)	> 100 µM (inactive)	> 100 µM (inactive)	–	> 100 µM (inactive)	> 100 µM (inactive)	> 100 µM (inactive)	> 100 µM (inactive)	> 100 µM (inactive)	> 100 µM (inactive)	> 100 µM (inactive)	> 100 µM (inactive)	> 100 µM (inactive)	> 100 µM (inactive)	–
O=C(O)CNS(=O)(=O)c1ccc(NC(=O)Nc2ccccc2)cc1	> 100 µM (inactive)	–	> 100 µM (inactive)	> 100 µM (inactive)	> 31.6 µM (inactive)	> 100 µM (inactive)	> 100 µM (inactive)	> 37.6 µM (inactive)	–	> 100 µM (inactive)	> 100 µM (inactive)	> 100 µM (inactive)	> 100 µM (inactive)	> 100 µM (inactive)	> 100 µM (inactive)	> 100 µM (inactive)	> 100 µM (inactive)	> 100 µM (inactive)	> 100 µM (inactive)	–
Nc1ccc(C(=O)NN2C(=O)[C@H](Cl)C2c2ccc(Cl)cc2)cc1 (stereo partly specified)	–	0.789 µM (active)	1.4 µM (inactive)	1.93 µM (inactive)	1.91 µM (inactive)	1.77 µM (inactive)	1.87 µM (inactive)	1.65 µM (inactive)	1.58 µM (inactive)	1.09 µM (active)	0.869 µM (active)	0.615 µM (active)	0.265 µM (active)	1.89 µM (inactive)	1.93 µM (inactive)	1.22 µM (inactive)	1.74 µM (inactive)	3.55 µM (inactive)	1.76 µM (inactive)	0.324 µM (active)
CC1[C@@H](OCc2ccccc2)COC(=O)N1Cc1ccccc1 (stereo partly specified)	–	> 100 µM (inactive)	–	> 100 µM (inactive)	–	> 100 µM (inactive)	5.27 µM (inactive)	> 100 µM (inactive)	> 100 µM (inactive)	33.3 µM (inactive)	52.1 µM (inactive)	78 µM (inactive)	> 100 µM (inactive)	> 100 µM (inactive)	69.5 µM (inactive)	> 100 µM (inactive)	68.4 µM (inactive)	78.9 µM (inactive)	> 100 µM (inactive)	> 100 µM (inactive)
CN(C)CCNC(=O)c1cccc2[nH]c(-c3ccc(Cl)cc3)nc12	10.7 µM (inactive)	–	2.82 µM (inactive)	2.97 µM (inactive)	2.77 µM (inactive)	8.77 µM (inactive)	5.25 µM (inactive)	7.35 µM (inactive)	–	2.03 µM (inactive)	7.41 µM (inactive)	7.24 µM (inactive)	17.1 µM (inactive)	13.4 µM (inactive)	4.8 µM (inactive)	5.42 µM (inactive)	7.78 µM (inactive)	12.4 µM (inactive)	4.61 µM (inactive)	–
O=C1C2=C(C3=NCCc4c[nH]c1c43)c1c(Br)cc(Br)cc1CCN2	11.2 µM (inactive)	–	13.4 µM (inactive)	1.29 µM (inactive)	1.62 µM (inactive)	14.6 µM (inactive)	9.18 µM (inactive)	4.06 µM (inactive)	–	1.35 µM (inactive)	1.79 µM (inactive)	2.22 µM (inactive)	8.49 µM (inactive)	3.33 µM (inactive)	1.62 µM (inactive)	3.66 µM (inactive)	1.5 µM (inactive)	3.01 µM (inactive)	2.98 µM (inactive)	–
CC(C)C1NC(=O)CC(c2ccccc2)N(N=O)C1c1ccccc1 (stereo unspecified)	> 100 µM (inactive)	–	> 100 µM (inactive)	> 100 µM (inactive)	74.5 µM (inactive)	> 100 µM (inactive)	> 51.3 µM (inactive)	> 100 µM (inactive)	–	> 100 µM (inactive)	> 80.9 µM (inactive)	> 100 µM (inactive)	> 100 µM (inactive)	> 100 µM (inactive)	> 83.6 µM (inactive)	> 100 µM (inactive)	> 100 µM (inactive)	> 100 µM (inactive)	> 100 µM (inactive)	–
c1ccc(/N=C2\S/C(=N\C3CCCCC3)N(C3CCCCC3)\C2=N/c2ccccc2)cc1	> 100 µM (inactive)	–	> 100 µM (inactive)	> 100 µM (inactive)	> 100 µM (inactive)	> 100 µM (inactive)	–	> 100 µM (inactive)	> 100 µM (inactive)	37.8 µM (inactive)	> 100 µM (inactive)	–	> 100 µM (inactive)	> 100 µM (inactive)	80.4 µM (inactive)	> 100 µM (inactive)	–	–	> 100 µM (inactive)	> 100 µM (inactive)
Cc1cccc2nc3c(C(=O)NCCN(C)C)cccc3cc12	1.37 µM (inactive)	–	0.07 µM (active)	0.681 µM (active)	1.14 µM (inactive)	1.72 µM (inactive)	0.776 µM (active)	2.31 µM (inactive)	–	0.337 µM (active)	2.07 µM (inactive)	1.83 µM (inactive)	1.85 µM (inactive)	1.88 µM (inactive)	1.64 µM (inactive)	2.52 µM (inactive)	0.893 µM (active)	1.99 µM (inactive)	1.07 µM (active)	–
C=CCN(N=O)C(=O)N(CCC)CCCCC(NC(C)=O)C(=O)NCc1ccccc1 (stereo unspecified)	> 100 µM (inactive)	> 100 µM (inactive)	48.2 µM (inactive)	> 100 µM (inactive)	21 µM (inactive)	> 100 µM (inactive)	23.2 µM (inactive)	> 100 µM (inactive)	> 100 µM (inactive)	22.5 µM (inactive)	> 100 µM (inactive)	64.1 µM (inactive)	> 100 µM (inactive)	> 100 µM (inactive)	67.9 µM (inactive)	> 100 µM (inactive)	> 100 µM (inactive)	> 100 µM (inactive)	> 100 µM (inactive)	–
